Test results reported in PMC10175918 (Communications Biology, 2023).
Like-named read-outs stand apart in the source and are kept apart here.

How the values were obtained:
Experiment in all cases: TGFα-shedding assay-based GPCR screening with chimeric Gα subunit proteins
Format in all cases: cell-based
348 GPCRs [1] = molecular target: T1, 348 GPCRs (Homo sapiens, UniProt P35368)
T1 construct: expressed in transfected cells; host or cells: HEK293A
T1 sequence (P35368 1-520): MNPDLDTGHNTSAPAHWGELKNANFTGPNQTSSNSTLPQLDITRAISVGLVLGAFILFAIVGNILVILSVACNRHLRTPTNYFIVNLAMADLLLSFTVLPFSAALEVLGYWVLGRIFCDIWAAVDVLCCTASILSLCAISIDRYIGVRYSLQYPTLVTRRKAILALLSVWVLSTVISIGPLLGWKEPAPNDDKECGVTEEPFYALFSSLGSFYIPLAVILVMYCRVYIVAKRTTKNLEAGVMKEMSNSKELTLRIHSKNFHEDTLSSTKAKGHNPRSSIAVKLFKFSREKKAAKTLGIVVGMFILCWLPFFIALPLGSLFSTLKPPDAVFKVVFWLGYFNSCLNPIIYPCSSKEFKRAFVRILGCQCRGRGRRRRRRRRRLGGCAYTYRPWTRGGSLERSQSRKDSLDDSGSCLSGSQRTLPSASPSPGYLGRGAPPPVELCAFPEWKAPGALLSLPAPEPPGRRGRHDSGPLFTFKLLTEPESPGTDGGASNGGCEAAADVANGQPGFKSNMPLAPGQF

348 GPCRs [2] = molecular target: T2, 348 GPCRs (Homo sapiens, UniProt P48039); details: 10µM, Favipiravir 100μM
T2 construct: expressed in transfected cells; host or cells: HEK293A
T2 sequence (P48039 whole entry): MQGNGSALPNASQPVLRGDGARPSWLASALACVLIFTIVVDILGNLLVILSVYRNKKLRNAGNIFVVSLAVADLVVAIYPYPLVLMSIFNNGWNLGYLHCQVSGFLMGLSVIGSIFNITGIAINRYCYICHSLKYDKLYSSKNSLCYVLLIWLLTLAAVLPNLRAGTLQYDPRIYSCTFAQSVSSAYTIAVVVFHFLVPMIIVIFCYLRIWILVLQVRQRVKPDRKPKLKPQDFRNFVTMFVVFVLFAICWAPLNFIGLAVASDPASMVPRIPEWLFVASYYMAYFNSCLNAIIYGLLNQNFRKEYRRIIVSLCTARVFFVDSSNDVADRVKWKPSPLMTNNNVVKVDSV

348 GPCRs [3] = molecular target: T3, 348 GPCRs (Homo sapiens, UniProt Q9HC97); details: 10µM, Favipiravir 100μM
T3 construct: expressed in transfected cells; host or cells: HEK293A
T3 sequence (Q9HC97 whole entry): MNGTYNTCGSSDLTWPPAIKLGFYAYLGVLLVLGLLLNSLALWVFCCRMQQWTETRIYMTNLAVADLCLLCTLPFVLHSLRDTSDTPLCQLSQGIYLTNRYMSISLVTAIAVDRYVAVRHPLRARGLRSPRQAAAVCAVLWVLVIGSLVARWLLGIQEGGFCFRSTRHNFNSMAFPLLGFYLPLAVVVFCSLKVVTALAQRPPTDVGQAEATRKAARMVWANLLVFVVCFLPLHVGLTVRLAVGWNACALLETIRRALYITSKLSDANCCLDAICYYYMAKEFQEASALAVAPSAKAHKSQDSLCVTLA

348 GPCRs [4] = molecular target: T4, 348 GPCRs (Homo sapiens, UniProt P30988); details: 10µM, Favipiravir 100μM
T4 sequence (P30988 25-474): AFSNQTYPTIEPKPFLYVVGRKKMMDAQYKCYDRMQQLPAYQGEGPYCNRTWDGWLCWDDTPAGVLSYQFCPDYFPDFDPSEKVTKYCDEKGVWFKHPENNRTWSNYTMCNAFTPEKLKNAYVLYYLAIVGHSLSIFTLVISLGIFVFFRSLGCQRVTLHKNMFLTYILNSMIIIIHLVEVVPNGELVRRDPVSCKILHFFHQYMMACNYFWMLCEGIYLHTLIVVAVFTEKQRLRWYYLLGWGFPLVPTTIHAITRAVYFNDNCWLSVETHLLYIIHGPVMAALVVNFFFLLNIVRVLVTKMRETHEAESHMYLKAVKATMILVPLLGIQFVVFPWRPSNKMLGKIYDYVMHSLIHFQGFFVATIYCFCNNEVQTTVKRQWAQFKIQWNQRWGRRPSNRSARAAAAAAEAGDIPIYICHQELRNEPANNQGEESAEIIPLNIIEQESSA

348 GPCRs [5] = molecular target: T5, 348 GPCRs (Homo sapiens, UniProt Q13324)
T5 construct: expressed in transfected cells; host or cells: HEK293A
T5 sequence (Q13324 1-411): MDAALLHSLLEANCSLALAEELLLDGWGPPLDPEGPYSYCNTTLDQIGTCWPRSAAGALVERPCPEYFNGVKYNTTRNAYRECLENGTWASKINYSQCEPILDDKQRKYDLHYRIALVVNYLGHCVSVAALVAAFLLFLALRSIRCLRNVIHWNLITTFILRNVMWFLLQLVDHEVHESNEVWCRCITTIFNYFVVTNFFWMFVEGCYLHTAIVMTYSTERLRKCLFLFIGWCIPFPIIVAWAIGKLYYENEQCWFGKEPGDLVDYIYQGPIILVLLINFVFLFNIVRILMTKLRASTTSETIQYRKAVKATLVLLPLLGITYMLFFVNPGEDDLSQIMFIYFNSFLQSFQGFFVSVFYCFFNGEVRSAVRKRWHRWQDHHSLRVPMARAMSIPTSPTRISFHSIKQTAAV

348 GPCRs [6] = molecular target: T6, 348 GPCRs (Homo sapiens, UniProt Q13585)
T6 construct: expressed in transfected cells; host or cells: HEK293A
T6 sequence (Q13585 whole entry): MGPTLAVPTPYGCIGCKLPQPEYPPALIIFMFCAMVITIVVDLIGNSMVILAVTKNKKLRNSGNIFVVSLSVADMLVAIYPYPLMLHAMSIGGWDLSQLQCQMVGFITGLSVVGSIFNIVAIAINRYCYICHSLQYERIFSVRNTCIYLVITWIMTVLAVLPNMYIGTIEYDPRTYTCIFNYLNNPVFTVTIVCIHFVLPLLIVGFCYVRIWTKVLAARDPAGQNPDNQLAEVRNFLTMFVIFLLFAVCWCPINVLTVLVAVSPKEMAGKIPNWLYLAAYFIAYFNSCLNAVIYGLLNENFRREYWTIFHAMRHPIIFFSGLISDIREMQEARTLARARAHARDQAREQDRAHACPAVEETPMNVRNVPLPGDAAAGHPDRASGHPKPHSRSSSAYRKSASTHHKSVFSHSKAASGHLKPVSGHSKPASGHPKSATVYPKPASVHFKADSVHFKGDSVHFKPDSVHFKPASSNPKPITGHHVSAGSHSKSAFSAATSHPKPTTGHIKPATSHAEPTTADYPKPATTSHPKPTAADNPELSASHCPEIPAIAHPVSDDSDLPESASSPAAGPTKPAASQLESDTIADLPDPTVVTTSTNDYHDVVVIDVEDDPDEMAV

348 GPCRs [7] = molecular target: T7, 348 GPCRs (Homo sapiens, UniProt O95977); details: 10µM, Favipiravir 100μM
T7 sequence (O95977 1-384): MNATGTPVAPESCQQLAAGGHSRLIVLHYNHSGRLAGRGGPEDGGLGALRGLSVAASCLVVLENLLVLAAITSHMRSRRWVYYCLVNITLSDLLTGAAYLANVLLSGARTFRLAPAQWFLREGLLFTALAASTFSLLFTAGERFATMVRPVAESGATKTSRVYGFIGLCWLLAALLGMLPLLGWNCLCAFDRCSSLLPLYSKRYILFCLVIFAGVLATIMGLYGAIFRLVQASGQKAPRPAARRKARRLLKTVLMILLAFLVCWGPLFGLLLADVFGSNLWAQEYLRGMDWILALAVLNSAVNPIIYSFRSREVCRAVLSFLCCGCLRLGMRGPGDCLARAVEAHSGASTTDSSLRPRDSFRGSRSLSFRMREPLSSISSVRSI

348 GPCRs [8] = molecular target: T8, 348 GPCRs (Homo sapiens, UniProt P11229)
T8 sequence (P11229 1-460): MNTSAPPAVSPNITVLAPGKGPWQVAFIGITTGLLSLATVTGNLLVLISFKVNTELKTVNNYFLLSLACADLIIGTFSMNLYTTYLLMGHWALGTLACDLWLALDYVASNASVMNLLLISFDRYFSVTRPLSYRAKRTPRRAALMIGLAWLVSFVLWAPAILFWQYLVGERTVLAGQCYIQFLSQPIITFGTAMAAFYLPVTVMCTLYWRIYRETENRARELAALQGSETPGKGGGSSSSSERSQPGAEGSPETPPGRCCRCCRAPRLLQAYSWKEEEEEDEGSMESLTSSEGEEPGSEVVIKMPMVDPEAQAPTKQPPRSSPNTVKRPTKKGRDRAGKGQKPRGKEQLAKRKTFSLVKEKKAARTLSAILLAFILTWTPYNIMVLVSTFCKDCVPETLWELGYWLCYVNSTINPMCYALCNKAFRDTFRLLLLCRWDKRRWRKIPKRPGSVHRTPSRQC

[9] = GPCR α1B (adrenoceptor alpha 1B), read-out: % GPCR activation compared to TPA
[10] = MT1R (melatonin receptor type 1A), read-out: % GPCR activation compared to TPA
[11] = GPR35 (G protein-coupled receptor 35), read-out: % GPCR activation compared to TPA
[12] = CALCR (calcitonin receptor), read-out: % GPCR activation compared to TPA
[13] = GPCR CRHR2 (corticotropin releasing hormone receptor 2), read-out: % GPCR activation compared to TPA
[14] = GPCR GPR50 (G Protein-Coupled Receptor 50), read-out: % GPCR activation compared to TPA
[15] = S1PR4 (sphingosine-1-phosphate receptor 4), read-out: % GPCR activation compared to TPA
[16] = GPCR M1 (Muscarinic acetylcholine receptor M1), read-out: % GPCR activation compared to TPA
[17] = read-out: % GPCR activation compared to TPA, GPCR α1B (adrenoceptor alpha 1B)
[18] = read-out: % GPCR activation compared to TPA, MT1R (melatonin receptor type 1A)
[19] = read-out: % GPCR activation compared to TPA, GPR35 (G protein-coupled receptor 35)
[20] = read-out: % GPCR activation compared to TPA, CALCR (calcitonin receptor)
[21] = read-out: % GPCR activation compared to TPA, GPCR CRHR2 (corticotropin releasing hormone receptor 2)
[22] = read-out: % GPCR activation compared to TPA, GPCR GPR50 (G Protein-Coupled Receptor 50)
[23] = read-out: % GPCR activation compared to TPA, S1PR4 (sphingosine-1-phosphate receptor 4)
[24] = read-out: % GPCR activation compared to TPA, GPCR M1 (Muscarinic acetylcholine receptor M1)

| activation at 10 µM (348 GPCRs [1]; [9]) [%] | activation at 10 µM (348 GPCRs [2]; [10]) [%] | activation at 10 µM (348 GPCRs [3]; [11]) [%] | activation at 100 µM (348 GPCRs [4]; [12]) [%] | activation at 10 µM (348 GPCRs [5]; [13]) [%] | activation at 10 µM (348 GPCRs [6]; [14]) [%] | activation at 10 µM (348 GPCRs [7]; [15]) [%] | activation at 10 µM (348 GPCRs [8]; [16]) [%] | activation at 100 µM (348 GPCRs [1]; GPCR α1B (adrenoceptor alpha 1B), 100μM, read-out: % GPCR activation compared to TPA) [%] | activation at 100 µM (348 GPCRs [5]; GPCR CRHR2 (corticotropin releasing hormone receptor 2), 100μM, read-out: % GPCR activation compared to TPA) [%] | activation at 100 µM (348 GPCRs [6]; GPCR GPR50 (G Protein-Coupled Receptor 50), 100μM, read-out: % GPCR activation compared to TPA) [%] | activation at 100 µM (348 GPCRs [8]; GPCR M1 (Muscarinic acetylcholine receptor M1), 100μM, read-out: % GPCR activation compared to TPA) [%] | Compound | activation at 10 µM (348 GPCRs [1]; [17]) [%] | activation at 10 µM (348 GPCRs [2]; [18]) [%] | activation at 10 µM (348 GPCRs [3]; [19]) [%] | activation at 100 µM (348 GPCRs [4]; [20]) [%] | activation at 10 µM (348 GPCRs [5]; [21]) [%] | activation at 10 µM (348 GPCRs [6]; [22]) [%] | activation at 10 µM (348 GPCRs [7]; [23]) [%] | activation at 10 µM (348 GPCRs [8]; [24]) [%] |
| --- | --- | --- | --- | --- | --- | --- | --- | --- | --- | --- | --- | --- | --- | --- | --- | --- | --- | --- | --- | --- |
| -1.17 | 0.391 | 4.18 | -3.54 | 0.656 | -1.05 | -3.24 | 0.618 | – | – | – | – | N#C[C@@]1(c2ccc3c(N)ncnn23)O[C@H](CO)[C@@H](O)[C@H]1O [GS441524] | – | – | – | – | – | – | – | – |
| – | -1.27 | 3 | -3.06 | – | – | -3.38 | – | -1.61 | -0.529 | -0.692 | 0.788 | NC(=O)c1nc(F)cnc1O [favipiravir, 6-fluoro-3-hydroxy-2-pyrazinecarboxamide] | – | – | – | – | – | – | – | – |
| 0.493 | -4.07 | -3.01 | -0.059 | -0.005 | -1.45 | -2.08 | -0.856 | – | – | – | – | CC(C)C(=O)OC[C@H]1O[C@@H](n2ccc(NO)nc2=O)[C@H](O)[C@@H]1O [molnupiravir] | – | – | – | – | – | – | – | – |
| – | – | – | – | – | – | – | – | – | – | – | – | CCC(CC)COC(=O)[C@H](C)N[P@](=O)(OC[C@H]1O[C@@](C#N)(c2ccc3c(N)ncnn23)[C@H](O)[C@@H]1O)Oc1ccccc1 [remdesivir] | -0.0202 | 0.542 | 0.537 | 1.27 | 1.58 | -1.37 | -2.69 | 3.01 |
| – | – | – | – | – | – | – | – | – | – | – | – | CC(C)OC(=O)[C@H](C)N[P@](=O)(OC[C@H]1O[C@@H](n2ccc(=O)[nH]c2=O)[C@](C)(F)[C@@H]1O)Oc1ccccc1 [sofosbuvir] | 0.342 | -4.49 | -7.86 | -2.01 | 2.1 | -0.301 | -2.24 | -0.631 |
